# Assay results reported in patent US9273095B2, “Antibiotic peptide and preparation method therefor and application therefor” (priority 2011, dated 2016).
# Non-standard residues stand in square brackets, D forms with d. Residues, ends and D or L forms follow the SMILES beside them.
# Tests used:
# aspergillus flavous = experiment: microbe, parasite or virus in culture; assay type: cell-based
# Protocol: (§1) • (1) Test strains: monilia albicans (candida albicans), candida glabrata, candida krusei, candida tropicalis, aspergillus fumigatus and flavous. Antimicrobial peptides PL-13 (SEQ ID NO: 1) under test are supplied by Jiangsu ProteLight Pharmaceutical & Biotechnology Co., LTD. […] Activation of bacterial strains is conducted at a humidity level of 60% and 25° C. (for aspergillus) or 37° C. (for candida). (2) 0.9% stroke-physiological saline solution comprising 0.5% Tween-80 is used to prepare bacterial suspension for experiment. Hemocytometer is utilized to adjust concentration of the bacterial suspension to 1-3×10^6 CFU/ml (0.5 McFarland units) to make stock solution in reserve at -20° C. During the sensitivity test, the RPMI-1640 liquid medium is diluted 1000 times to 1-3×10^3 CFU/ml. (3) The RPMI-1640 liquid is utilized as diluent to 10-fold dilute stock solution of peptides. […] The eleventh orifice is used as living control orifice, while the twelfth one as blank control. (4) The RPMI-1640 liquid is utilized as diluent to 10-fold dilute stock solution of FCZ and ICZ. […] Ditto for other operations.
# candida albicans = experiment: microbe, parasite or virus in culture; assay type: cell-based
# Protocol: as §1
# candida glabrata = experiment: microbe, parasite or virus in culture; assay type: cell-based
# Protocol: as §1
# aspergillus fumigatus = experiment: microbe, parasite or virus in culture; assay type: cell-based
# Protocol: as §1
# candida tropicalis = experiment: microbe, parasite or virus in culture; assay type: cell-based
# Protocol: as §1
# [1] = Circular dichroism (CD) spectroscopy, helical structure; assay type: physicochemical; conditions: for 50% TFE % helix / Benign buffer % helix: relative to ellipticity (100%) of reference peptide in 50% TFE
# Protocol: The mean residue molar ellipticities of peptides are determined by circular dichroism (CD) spectroscopy, using a Jasco J-720 spectropolarimeter (Jasco, Easton, Md.), at 25° C. under benign conditions (50 mM KH2PO4/K2HPO4/100 mM KCl, pH7), as well as in the presence of an α-helix inducing solvent, 2,2,2-trifluoroethanol (TFE) (50 mM KH2PO4/K2HPO4/100 mM KCL, pH 7 buffer/50% TFE). A 10-fold dilution of a 500 μM stock solution of the peptide is loaded into a 0.02 cm fused silica cell and its mean residue molar ellipticity scanned from 190 to 250 nm. The values of mean residue molar ellipticities of the peptide at a wavelength of 222 nm are used to estimate the relative amount of α-helicity of the peptides.
# To determine the secondary structure of peptides in different environments, circular dichroism (CD) spectra of the peptide analogs are measured under physiologically related pH and ionic strength (100 mM KCl, 50 mM aq. PO4, pH 7 referred to as benign conditions) and also in 50% TFE to mimic the hydrophobic environment of the membrane. CD spectra of the peptide analogs are measured under benign conditions (100 mM KCl, 50 mM KH2PO4/K2HPO4, pH 7, referred to as KP buffer) and also in 50% trifluoroethanol (TFE) to mimic the hydrophobic environment of the membrane. […] However, in the presence of 50% TFE, all three L-peptides are fully folded α-helical structures with similar molar ellipticities and helicity.
# FIG. 2 illustrates graphical results of Circular dichroism (CD) spectra of peptides at pH 7.4 and 25° C., in 50 mM aq. PO4 containing 100 mM KCl, wherein KP buffer (50 mM KH2PO4, K2HPO4, 100 mM KCl, pH 7.4) mimics hydrophilic environment and KP buffer-TFE (1:1 [vol/vol]) mimics hydrophobic environment of cell membrane. The figure above represents the CD spectra of peptides in benign buffer without TFE, whilst the figure below represents CD spectra obtained in the presence of 50% TFE.
# [2] = RP-HPLC temperature profiling: hydrophobicity and self-association; assay type: physicochemical; conditions: for tR(min) 5° C. / tR(min) 80° C.: RP-HPLC temperature profiling; for PA (min), association parameter: maximal normalized retention time difference within 5-80° C., self-association ability; for tR(min) Max: maximal retention time during temperature profiling 5-80° C.; for ΔtR(X-Peptide C)(min) 5° C.: retention time difference to control peptide C at 5° C.; for ΔtR(X-Peptide C)(min) 5° C. / ΔtR(X-Peptide C)(min) 80° C.: relative hydrophobicity; for ΔtR(X-Peptide C)(min) 80° C.: retention time difference to control peptide C at 80° C.; for Hydrophobicity tR5: retention time in RP-HPLC at pH 2, 5° C.; for Hydrophobicity tR80: retention time in RP-HPLC at pH 2, 80° C.
# Protocol: Peptides are analyzed on an Agilent 1200 series liquid chromatograph (Little Falls, Del.). Runs are performed on a Zorbax 300 SB-C8 column (150×4.6 mm I.D.; 5 μm particle size, 300 Å pore size) from Agilent Technologies using linear AB gradient (1% acetonitrile/min) and a flow rate of 1 ml/min, where solvent A is 0.05% aqueous TFA, pH 2 and solvent B is 0.05% TFA in acetonitrile.
# We further use temperature profiling during RP-HPLC to determine the self-association ability of various analogs of PL-13 (SEQ ID NO: 1) which would occur through interaction of the non-polar faces of these amphipathic peptides α-helices. We use 50% TFE aqueous acetonitrile and hydrophobic conditions in the reversed-phase column (hydrophobic stationary phase and the hydrophobic organic solvent in the mobile phase) since the hydrophobic environment of a reversed-phase column also could induce α-helical structure. Since its introduction, the technique of RP-HPLC temperature profiling has been applied on several types of molecules, including cyclic β-sheet peptides, monomeric α-helices and α-helices that dimerize, as well as α-helices that dimerize to form coiled-coils. Although peptides are eluted from a reversed-phase column mainly by an adsorption/desorption mechanism, even a peptide strongly bound to a hydrophobic stationary phase will partition between the matrix and the mobile phase when the acetonitrile content becomes high enough during gradient elution. In summary, the mechanism is based on four assumptions: (i) at low temperature, just as an amphipathic α-helical peptide is able to dimerize in aqueous solution (through its hydrophobic, non-polar face), it will dimerize in solution during partitioning in reversed-phase chromatography; (ii) at higher temperatures, the monomer-dimer equilibrium favors the monomer as the dimer is disrupted; (iii) at sufficiently high temperatures, only monomer is present in solution; and (iv) peptide is always bound in its monomeric helical form to the hydrophobic stationary phase, i.e., the dimer can only be present in solution and disruption of the dimer is required for rebinding to the RP-HPLC matrix.
# ([θ]222=−3,950). Since peptide C is a monomeric random coil peptide in both aqueous and hydrophobic media, its retention behavior over the temperature range 5-80° C. represents only general temperature effects on peptide retention behavior, i.e., a linear decrease in peptide retention time with increasing temperature due to greater solute diffusivity and enhanced mass transfer between the stationary and mobile phases at higher temperatures. Thus, after normalization to the retention times of peptide C, the retention behavior of the peptides only represents peptide self-association ability. Note that the higher the PA value, the greater the self-association ability. The order of peptide self-association ability of the three pairs of peptide enantiomers is identical to the order of peptide hydrophobicity. Apart from the decrease in retention time due to the general temperature effects noted above, destruction of the α-helix will also occur with increasing temperature, resulting in reduced retention times as the peptides become increasingly random coils.
# The retention time data for the peptides is shown in Table 6 which records retention times at 5° C., the maximal retention times and retention times at 80° C. during the temperature profiling. Temperatures of 5-80° C. are the lower and upper temperature limits of temperature profiling in RP-HPLC, representing polymerization of the peptides at 5° C. and the monomerization of peptides at 80° C. due to denaturation of peptides by high temperature and dissociation of the polymers. The maximal retention times represent the threshold points at which peptides totally transform from polymeric to monomeric form. […]
compound,measurement,setting,value
Ac-KKLKKLFSKLWNW-NH2 (N-terminus and C-terminus assumed) [PL-30],Minimal inhibitory concentration,aspergillus flavous,>64 µg/mL
same,Minimal inhibitory concentration,candida albicans,16 µg/mL
same,Minimal inhibitory concentration,candida glabrata,32 µg/mL
Ac-FKKLKKLFSKLWNWKK-NH2 (N-terminus and C-terminus assumed) [PL-48],Minimal inhibitory concentration,aspergillus flavous,>64 µg/mL
same,Minimal inhibitory concentration,aspergillus fumigatus,32 µg/mL
same,Minimal inhibitory concentration,candida tropicalis,8 µg/mL
Ac-FKKFKKLLSKLWNWK-NH2 (N-terminus and C-terminus assumed) [PL-32],Minimal inhibitory concentration,aspergillus flavous,>64 µg/mL
same,Minimal inhibitory concentration,aspergillus fumigatus,64 µg/mL
same,Minimal inhibitory concentration,candida glabrata,32 µg/mL
CC(=O)N[C@H](CC(C)C)C(=O)N[C@H](Cc1ccccc1)C(=O)N[C@H](CCCCN)C(=O)N[C@H](CCCCN)C(=O)N[C@H](CC(C)C)C(=O)N[C@H](CCCCN)C(=O)N[C@H](CCCCN)C(=O)N[C@H](CC(C)C)C(=O)N[C@H](Cc1ccccc1)C(=O)N[C@H](CO)C(=O)N[C@H](CCCCN)C(=O)N[C@H](CC(C)C)C(=O)N[C@H](Cc1c[nH]c2ccccc12)C(=O)N[C@H](CC(N)=O)C(=O)N[C@H](Cc1c[nH]c2ccccc12)C(=O)N[C@H](CCCCN)C(N)=O [PL-51] (Ac-[dL][dF][dK][dK][dL][dK][dK][dL][dF][dS][dK][dL][dW][dN][dW][dK]-NH2; N-terminus and C-terminus assumed),50% TFE % helix,[1],100.0%
same,Benign buffer % helix,[1],16.8%
same,50% TFE [θ]222,"[1]; mean residue molar ellipticity at 222 nm, 25° C., buffer containing 50% TFE",28200 deg · cm^2 · dmol^−1
same,tR(min) 5° C.,[2],42.59 min
same,tR(min) 80° C.,[2],41.35 min
same,"PA (min), association parameter",[2],1.63 min
same,tR(min) Max,[2],42.96 min
same,ΔtR(X-Peptide C)(min) 5° C.,[2],20.02 min
same,ΔtR(X-Peptide C)(min) 80° C.,[2],21.42 min
same,Hydrophobicity tR5,[2],42.59 min
same,Hydrophobicity tR80,[2],41.35 min
same,Minimal inhibitory concentration,aspergillus flavous,>64 µg/mL
CC(=O)N[C@H](CCCCN)C(=O)N[C@H](CC(C)C)C(=O)N[C@H](CCCCN)C(=O)N[C@H](CCCCN)C(=O)N[C@H](CC(C)C)C(=O)N[C@H](Cc1ccccc1)C(=O)N[C@H](CO)C(=O)N[C@H](CCCCN)C(=O)N[C@H](CC(C)C)C(=O)N[C@H](Cc1c[nH]c2ccccc12)C(=O)N[C@H](CC(N)=O)C(=O)N[C@H](Cc1c[nH]c2ccccc12)C(=O)N[C@H](CCCCN)C(N)=O [PL-40] (Ac-[dK][dL][dK][dK][dL][dF][dS][dK][dL][dW][dN][dW][dK]-NH2; N-terminus and C-terminus assumed),50% TFE % helix,[1],70.7%
same,Benign buffer % helix,[1],6.0%
same,tR(min) 5° C.,[2],33.16 min
same,tR(min) 80° C.,[2],30.94 min
same,"PA (min), association parameter",[2],0.55 min
same,tR(min) Max,[2],33.16 min
same,ΔtR(X-Peptide C)(min) 5° C.,[2],10.60 min
same,ΔtR(X-Peptide C)(min) 80° C.,[2],11.01 min
same,Hydrophobicity tR5,[2],33.16 min
same,Hydrophobicity tR80,[2],30.94 min
same,Minimal inhibitory concentration,aspergillus flavous,>64 µg/mL
same,Minimal inhibitory concentration,candida albicans,16 µg/mL
CC(=O)N[C@H](Cc1ccccc1)C(=O)N[C@H](CCCCN)C(=O)N[C@H](CCCCN)C(=O)N[C@H](CC(C)C)C(=O)N[C@H](CCCCN)C(=O)N[C@H](CCCCN)C(=O)N[C@H](CC(C)C)C(=O)N[C@H](Cc1ccccc1)C(=O)N[C@H](CO)C(=O)N[C@H](CCCCN)C(=O)N[C@H](CC(C)C)C(=O)N[C@H](CC(C)C)C(=O)N[C@H](CC(N)=O)C(=O)N[C@H](CC(C)C)C(=O)N[C@H](CCCCN)C(N)=O [PL-37] (Ac-[dF][dK][dK][dL][dK][dK][dL][dF][dS][dK][dL][dL][dN][dL][dK]-NH2),Minimal inhibitory concentration,aspergillus flavous,>64 µg/mL
Ac-FKKLKKKFSKLWNWK-NH2 (N-terminus and C-terminus assumed) [PL-23],Minimal inhibitory concentration,aspergillus flavous,>64 µg/mL
same,Minimal inhibitory concentration,aspergillus fumigatus,64 µg/mL
same,Minimal inhibitory concentration,candida albicans,16 µg/mL
same,Minimal inhibitory concentration,candida glabrata,32 µg/mL
